The values below come from patent US20260308278A1, “ANTIBODY THAT BINDS TO C3bBb” (Hoffmann-La Roche Inc., priority 2023, published 2026).

The test system of one experiment is classical pathway. Nature of the experiment: Classical pathway hemolysis assay (Ab-sensitized sheep erythrocytes). In kind it is cell-based, human. How it is done: Everything was prepared at RT except for the serum which was kept on ice so that the complement cascade would not start. Washed Ab-sensitized sheep erythrocytes (EA) were added to a V-shaped 96-well plate together with the dilution series of antibodies in a buffer appropriate for the classical pathway. Normal human serum was added at a final assay concentration of 2% and mixed gently with the other components. Complement activation was started by incubating the plates at 37° C. shaking continuously at 600 rpm to prevent the total sedimentation of the EAs. Hemolysis reaction was stopped after 30 min with the addition of ice-cold NaCl-solution containing 10 mM EDTA. Plates were centrifuged for 2 min at 1000×g at 4° C. to pellet the non-lysed EAs. […] Percentage of hemolysis was calculated: (OD test sample−OD BG or EDTA ctrl)/(OD full lysis−OD BG or EDTA ctrl)×100. IC50 values were calculated using Xlfit.

Experiment [1] relates to alternative complement pathway in human serum. The experiment in a line: Wieslab Complement system Alternative pathway assay. In kind it is biochemical. The following applies: comparative compounds, Table E14.
Procedure: This kit is an enzyme immunoassay for the determination of functional alternative complement pathway in human serum.
It combines principles of a hemolytic assay for complement activation with the use of specific antibodies to detect the generated neoantigen, which is proportional to the functional activity of the complement pathway. […] This mixture was diluted 1:18 in a diluent with a specific blocker (so that only AP will be activated) and incubated for another 15 min at RT. Solution was added to a 96-well plate specifically coated with activators of the AP and incubated for 60 min at 37° C. Wells were washed and C5b-9 detected following the protocol.
The next experiment addresses T1, C3 convertase (C3bBb) (Homo sapiens, UniProt P00751+P01024).
T1 construct: C3b fragment of complement component C3; from tissue; host or cells: plasma (factor B and factor D)
Nature of the experiment: BLI based C3b deposition assay. As to conditions: comparative compounds, Table E14. In kind it is biochemical. How it is done: In another experiment, the potency of the antibodies was assessed via a BLI based C3b deposition assay.
BLI based C3b deposition assay: The activated carbonyl group created upon C3 cleavage by the C3 convertase reacts and forms covalent adducts with nucleophiles in close proximity to the enzyme. We utilized this property to measure convertase activity by quantifying the C3b mass deposited on a BLI sensor loaded with C3bBb and exposed to C3.

Experiment [2] deals with C3bBb from Macaca Fascicularis. Nature of the experiment: Cross-reactivity hemolysis assay, Macaca Fascicularis. It is filed as cell-based, Macaca Fascicularis (Cynomolgus). The following applies: 37° C., 20 min.
The subject of experiment [3] is C3bBb from Chlorocebus sabaeus. Nature of the experiment: Cross-reactivity hemolysis assay, Chlorocebus sabaeus. As to conditions: RT, 20 min. In kind it is cell-based, Chlorocebus sabaeus (African Green Monkey).

T1 sequence (P01024 23-667 limits assumed): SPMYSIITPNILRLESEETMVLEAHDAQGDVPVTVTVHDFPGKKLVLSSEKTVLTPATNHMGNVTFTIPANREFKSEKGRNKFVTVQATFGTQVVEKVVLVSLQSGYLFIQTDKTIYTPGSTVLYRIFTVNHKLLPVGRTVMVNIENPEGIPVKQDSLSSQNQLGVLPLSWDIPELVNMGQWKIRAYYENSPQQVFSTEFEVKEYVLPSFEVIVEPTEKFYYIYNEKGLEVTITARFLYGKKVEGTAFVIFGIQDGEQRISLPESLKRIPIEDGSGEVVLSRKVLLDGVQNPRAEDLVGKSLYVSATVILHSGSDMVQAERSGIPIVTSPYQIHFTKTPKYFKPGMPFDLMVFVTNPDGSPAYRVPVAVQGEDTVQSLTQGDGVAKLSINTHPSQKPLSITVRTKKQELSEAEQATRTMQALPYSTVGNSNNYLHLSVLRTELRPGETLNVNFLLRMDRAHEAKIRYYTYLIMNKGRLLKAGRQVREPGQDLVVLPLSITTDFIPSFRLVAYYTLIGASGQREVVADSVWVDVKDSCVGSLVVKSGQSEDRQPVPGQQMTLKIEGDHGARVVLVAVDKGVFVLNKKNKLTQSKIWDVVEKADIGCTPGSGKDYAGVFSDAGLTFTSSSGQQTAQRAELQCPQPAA
T1 sequence (P01024 749-1663 limits assumed): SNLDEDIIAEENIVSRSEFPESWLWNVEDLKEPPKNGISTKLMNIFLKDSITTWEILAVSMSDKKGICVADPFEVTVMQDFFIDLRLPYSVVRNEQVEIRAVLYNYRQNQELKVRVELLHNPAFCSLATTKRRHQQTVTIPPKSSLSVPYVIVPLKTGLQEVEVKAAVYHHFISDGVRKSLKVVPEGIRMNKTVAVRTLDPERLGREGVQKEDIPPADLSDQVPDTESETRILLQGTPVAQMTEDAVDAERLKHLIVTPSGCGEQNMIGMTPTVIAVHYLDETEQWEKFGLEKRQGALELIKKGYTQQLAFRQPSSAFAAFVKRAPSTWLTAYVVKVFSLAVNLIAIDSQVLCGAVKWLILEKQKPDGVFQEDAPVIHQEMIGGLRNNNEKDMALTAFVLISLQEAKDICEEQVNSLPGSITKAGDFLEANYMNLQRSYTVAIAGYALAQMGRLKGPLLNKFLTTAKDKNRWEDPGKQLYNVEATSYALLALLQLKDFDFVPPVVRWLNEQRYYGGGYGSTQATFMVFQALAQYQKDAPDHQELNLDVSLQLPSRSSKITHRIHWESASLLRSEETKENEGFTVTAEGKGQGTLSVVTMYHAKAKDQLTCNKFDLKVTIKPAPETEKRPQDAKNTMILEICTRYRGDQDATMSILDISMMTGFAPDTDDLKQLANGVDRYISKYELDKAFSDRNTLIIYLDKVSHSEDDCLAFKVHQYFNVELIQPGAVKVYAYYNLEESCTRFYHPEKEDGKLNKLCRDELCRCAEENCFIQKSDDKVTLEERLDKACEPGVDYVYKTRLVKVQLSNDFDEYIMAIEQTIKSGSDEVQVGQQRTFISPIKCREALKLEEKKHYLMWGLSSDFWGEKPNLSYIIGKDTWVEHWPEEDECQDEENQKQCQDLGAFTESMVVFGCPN
T1 sequence (P00751 260-764 limits assumed): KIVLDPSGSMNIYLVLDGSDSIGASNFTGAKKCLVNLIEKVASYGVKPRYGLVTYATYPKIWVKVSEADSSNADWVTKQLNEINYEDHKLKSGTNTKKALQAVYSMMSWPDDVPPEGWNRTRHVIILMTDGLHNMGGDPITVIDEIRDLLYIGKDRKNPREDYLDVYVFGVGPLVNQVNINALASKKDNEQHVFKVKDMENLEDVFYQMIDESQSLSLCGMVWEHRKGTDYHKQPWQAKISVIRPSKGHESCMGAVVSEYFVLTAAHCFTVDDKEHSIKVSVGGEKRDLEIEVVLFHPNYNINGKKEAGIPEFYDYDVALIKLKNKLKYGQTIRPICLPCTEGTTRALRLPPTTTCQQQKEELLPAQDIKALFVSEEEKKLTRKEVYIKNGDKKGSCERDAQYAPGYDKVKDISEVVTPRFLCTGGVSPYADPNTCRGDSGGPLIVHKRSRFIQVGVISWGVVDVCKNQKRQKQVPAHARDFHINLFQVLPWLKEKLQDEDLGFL

For `CCO[C@H]1CCN(Cc2c(OC)cc(C)c3[nH]ccc23)[C@H](c2ccc(C(=O)O)cc2)C1` [LNP023, Iptacopan], the “inhibition of the classical pathway” value in the experiment with classical pathway is on record as “does not inhibit the classical pathway”.
The term IC50 denotes the concentration that inhibits the measured activity by half. For the compound Pegcetacoplan [APL-2], the IC50 in experiment [1] was 274 nM; against C3 convertase (C3bBb), 200 nM; in experiment [2], 316 nM; in experiment [3], 147 nM; in the experiment with classical pathway (2% normal human serum, sheep erythrocytes), 1020 nM.
